Laboratory results published in PubChem BioAssay AID328 (DTP/NCI, 2004).
Toxic doses and inconclusive results are not listed. How the source made its calls: active means survival T/C of 150% or more; inactive means T/C below 125% in these data. Non-standard residues stand in square brackets, D forms with d. Residues, ends and D or L forms follow the SMILES beside them. ξ: configuration not given here. ξLac(3-iPr) = CC(C)CC(O)C(=O)O; NMeV = CN[CH](C(=O)O)C(C)C; NMeA = CN[CH](C)C(=O)O; βAla = NCCC(=O)O

System: BDF1 mice, P388 leukemia ip, median survival T/C
Experiment: NCI In Vivo Anticancer Drug Screen. Data for tumor model P388 Leukemia (intraperitoneal) in B6D2F1 (BDF1) mice
Settings: endpoint: median survival time, higher = longer survival
Outline: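 T/C = treated-group survival ÷ vehicle-control survival; tumour transplanted into mice before dosing.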

[1] = dose: 100.0 mg/kg/injection, schedule: Q04DX003 (ip), vehicle: saline with Tween-80
[2] = dose: 200.0 mg/kg/injection, schedule: Q04DX003 (ip), vehicle: saline with Tween-80
[3] = dose: 50.0 mg/kg/injection, schedule: Q01DX009 (ip), vehicle: water
[4] = dose: 100.0 mg/kg/injection, schedule: Q01DX009 (ip), vehicle: water
[5] = dose: 200.0 mg/kg/injection, schedule: Q01DX009 (ip), vehicle: water
[6] = dose: 50.0 mg/kg/injection, schedule: Q01DX009 (ip), vehicle: Klucel (hydroxypropylcellulose) (HPC)
[7] = dose: 100.0 mg/kg/injection, schedule: Q04DX003 (ip), vehicle: Klucel (hydroxypropylcellulose) (HPC)
[8] = dose: 200.0 mg/kg/injection, schedule: Q04DX003 (ip), vehicle: Klucel (hydroxypropylcellulose) (HPC)
[9] = dose: 400.0 mg/kg/injection, schedule: Q04DX003 (ip), vehicle: Klucel (hydroxypropylcellulose) (HPC)
[10] = dose: 100.0 mg/kg/injection, schedule: Q01DX009 (ip), vehicle: Klucel (hydroxypropylcellulose) (HPC)
[11] = dose: 200.0 mg/kg/injection, schedule: Q01DX009 (ip), vehicle: Klucel (hydroxypropylcellulose) (HPC)
[12] = dose: 100.0 mg/kg/injection, schedule: Q01DX001 (ip), vehicle: saline with Tween-80
[13] = dose: 2.5 mg/kg/injection, schedule: Q01DX009 (ip), vehicle: saline
[14] = dose: 5.0 mg/kg/injection, schedule: Q01DX009 (ip), vehicle: saline
[15] = dose: 400.0 mg/kg/injection, schedule: Q04DX003 (ip), vehicle: saline with Tween-80

Measured: T/C

C[As](C)Sc1ccnc(S[As](C)C)n1
inactive: dose: 50.0 mg/kg/injection, schedule: Q04DX003 (ip), vehicle: saline with Tween-80 100 % of control | [1] 100 % of control | [2] 104 % of control

Nc1ccn(CC(=O)c2ccc(Cl)s2)c(=O)n1
inactive: [3] 100 % of control | [4] 108 % of control | [5] 100 % of control

O=C(NNC(=O)c1ccc([N+](=O)[O-])cc1)c1ccccc1
inactive: dose: 3.0 mg/kg/injection, schedule: Q01DX009 (ip), vehicle: Klucel (hydroxypropylcellulose) (HPC) 95 % of control | dose: 6.0 mg/kg/injection, schedule: Q01DX009 (ip), vehicle: Klucel (hydroxypropylcellulose) (HPC) 104 % of control | dose: 12.0 mg/kg/injection, schedule: Q01DX009 (ip), vehicle: Klucel (hydroxypropylcellulose) (HPC) 100 % of control | [6] 92 % of control | [7] 104 % of control | [8] 87 % of control | [9] 108 % of control

CNC1C(O)C(OC2C(N)CC(N)C(OC3OC(CN)C(O)C(O)C3O)C2O)OCC1(C)O (stereo not given)
inactive: dose: 100.0 mg/kg/injection, schedule: Q01DX009 (ip), vehicle: saline 100 % of control | dose: 200.0 mg/kg/injection, schedule: Q01DX009 (ip), vehicle: saline 91 % of control | dose: 400.0 mg/kg/injection, schedule: Q01DX009 (ip), vehicle: saline 108 % of control

CCC(=O)O[C@H]1CC[C@H]2[C@@H]3CC[C@H]4CC(=O)[C@H](C)C[C@]4(C)[C@H]3CC[C@]12C
inactive: [10] 87 % of control | [7] 104 % of control | [11] 95 % of control | [8] 100 % of control | dose: 400.0 mg/kg/injection, schedule: Q01DX009 (ip), vehicle: Klucel (hydroxypropylcellulose) (HPC) 87 % of control | [9] 104 % of control

COc1nc(NC2OCC(O)C(O)C2O)c(C(=O)CCl)c(=O)n1C (stereo not given)
inactive: dose: 100.0 mg/kg/injection, schedule: Q04DX002 (ip), vehicle: saline with Tween-80 104 % of control | dose: 200.0 mg/kg/injection, schedule: Q04DX002 (ip), vehicle: saline with Tween-80 100 % of control | dose: 400.0 mg/kg/injection, schedule: Q04DX002 (ip), vehicle: saline with Tween-80 100 % of control

CC(C)=CCC1=C(OC2OC(CO)C(O)C(O)C2O)C(=O)c2ccccc2C1=O (stereo not given)
active: dose: 3.13 mg/kg/injection, schedule: Q01DX009 (ip), vehicle: saline with Tween-80 160 % of control
inactive: dose: 1.56 mg/kg/injection, schedule: Q01DX009 (ip), vehicle: saline with Tween-80 123 % of control

Cc1cc2nc(N)sc2cc1C
inactive: dose: 12.5 mg/kg/injection, schedule: Q01DX009 (ip), vehicle: other 115 % of control | dose: 25.0 mg/kg/injection, schedule: Q01DX009 (ip), vehicle: other 105 % of control

CCC(CO)NC(=O)Nc1cccc2ccccc12 (stereo not given)
inactive: [12] 109 % of control | dose: 200.0 mg/kg/injection, schedule: Q01DX001 (ip), vehicle: saline with Tween-80 100 % of control | dose: 400.0 mg/kg/injection, schedule: Q01DX001 (ip), vehicle: saline with Tween-80 109 % of control

C[C@]12CC[C@H]3[C@@H](CCC4=C[C@@H](OC5OCC(OC6OC(CO)C(O)C(O)C6O)C(O)C5O)CC[C@@]43C=O)[C@@]1(O)CCC2C1=CC(=O)OC1 (stereo not given in full)
inactive: [13] 122 % of control | [14] 111 % of control

O=C(CCl)Nc1ccc([As](=O)(O)O)cc1
inactive: dose: 12.5 mg/kg/injection, schedule: Q01DX009 (ip), vehicle: Klucel (hydroxypropylcellulose) (HPC) 100 % of control | dose: 25.0 mg/kg/injection, schedule: Q01DX009 (ip), vehicle: Klucel (hydroxypropylcellulose) (HPC) 100 % of control | [6] 90 % of control

CC(C(=O)c1cc(O)c(O)cc1C(O)(C(F)(F)F)C(F)(F)F)C(O)(C(F)(F)F)C(F)(F)F (stereo not given)
inactive: dose: 100.0 mg/kg/injection, schedule: Q01DX009 (ip), vehicle: saline with Tween-80 100 % of control | dose: 200.0 mg/kg/injection, schedule: Q01DX009 (ip), vehicle: saline with Tween-80 100 % of control | dose: 400.0 mg/kg/injection, schedule: Q01DX009 (ip), vehicle: saline with Tween-80 95 % of control

C1CC[N-]CC1.C1CC[N-]CC1.[Co].[N-]=C=S.[N-]=C=S
inactive: [12] 99 % of control

O=c1c(N=Nc2ccccc2)c(O)n(-c2ccccc2)c(=S)n1-c1ccccc1
inactive: dose: 25.0 mg/kg/injection, schedule: Q01DX001 (ip), vehicle: saline with Tween-80 100 % of control | dose: 50.0 mg/kg/injection, schedule: Q01DX001 (ip), vehicle: saline with Tween-80 90 % of control | [12] 95 % of control

Cc1ncc([N+](=O)[O-])n1CCn1nnc2c1CCCC2
inactive: [15] 114 % of control
active: [2] 210 % of control

COc1c2c(cc3oc4ccccc4c(=O)c13)CCCC2=O
inactive: dose: 50.0 mg/kg/injection, schedule: Q01DX005 (ip), vehicle: Klucel (hydroxypropylcellulose) (HPC) 90 % of control | dose: 200.0 mg/kg/injection, schedule: Q01DX005 (ip), vehicle: Klucel (hydroxypropylcellulose) (HPC) 88 % of control

CCCCSc1nc(N)nc2c1ncn2CC(C)CC (stereo not given)
inactive: [1] 100 % of control | [2] 100 % of control | [15] 100 % of control

CCC(C)C1NC(=O)C2CCCN2C(=O)C(CC(C)C)OC(=O)CCNC(=O)C(C)N(C)C(=O)C(C(C)C)N(C)C1=O (stereo not given) (cyclo([ξLac(3-iPr)]PI[NMeV][NMeA][βAla]); configuration not given here)
inactive: dose: 0.82 mg/kg/injection, schedule: Q01DX009 (ip), vehicle: saline 115 % of control | dose: 1.25 mg/kg/injection, schedule: Q01DX009 (ip), vehicle: saline 91 % of control | dose: 1.8 mg/kg/injection, schedule: Q01DX009 (ip), vehicle: saline 107 % of control | [13] 96 % of control | [14] 108 % of control | dose: 10.0 mg/kg/injection, schedule: Q01DX009 (ip), vehicle: saline 104 % of control

O=C1/C(=C\c2ccco2)SC(=S)N1c1ccccc1
inactive: dose: 10.0 mg/kg/injection, schedule: Q01DX009 (ip), vehicle: saline with Tween-80 96 % of control | dose: 20.0 mg/kg/injection, schedule: Q01DX009 (ip), vehicle: saline with Tween-80 89 % of control | dose: 40.0 mg/kg/injection, schedule: Q01DX009 (ip), vehicle: saline with Tween-80 98 % of control

COC1=C(O)C(C(O)CO)OC1=O (stereo not given)
inactive: dose: 6.25 mg/kg/injection, schedule: Q01DX009 (ip), vehicle: water 94 % of control | dose: 12.5 mg/kg/injection, schedule: Q01DX009 (ip), vehicle: water 112 % of control | dose: 25.0 mg/kg/injection, schedule: Q01DX009 (ip), vehicle: water 110 % of control | dose: 25.0 mg/kg/injection, schedule: Q04DX003 (ip), vehicle: water 112 % of control | [3] 100 % of control | dose: 50.0 mg/kg/injection, schedule: Q04DX003 (ip), vehicle: water 97 % of control | [4] 91 % of control | dose: 100.0 mg/kg/injection, schedule: Q04DX003 (ip), vehicle: water 100 % of control | [5] 103 % of control | dose: 200.0 mg/kg/injection, schedule: Q04DX003 (ip), vehicle: water 95 % of control | dose: 400.0 mg/kg/injection, schedule: Q01DX009 (ip), vehicle: water 100 % of control | dose: 400.0 mg/kg/injection, schedule: Q04DX003 (ip), vehicle: water 105 % of control

Clc1ccc(NC2=NCCN=C(Nc3ccc(Cl)c(Cl)c3)SS2)cc1Cl
inactive: [6] 100 % of control | [10] 92 % of control | [11] 88 % of control
